Source: publication PMC5218480 (PLoS ONE, 2017)

System: MV-4-11 cells
Test: Gene expression microarray analysis (Affymetrix PrimeView) and GSEA
Assay type: cell-based, human
Parameters: RFU PODN (11730768_x_at) / Fold change /veh PODN (11730768_x_at) / RFU LINC00158 (11744669_a_at) / Fold change /veh LINC00158 (11744669_a_at) / RFU DUSP10 (11751237_a_at) / Fold change /veh DUSP10 (11751237_a_at) / RFU ID3 (11757404_x_at) / Fold change /veh ID3 (11757404_x_at) / RFU PLEKHG5 (11737974_s_at) / Fold change /veh PLEKHG5 (11737974_s_at) / RFU LRRC4B (11730491_at) / Fold change /veh LRRC4B (11730491_at) / RFU GIMAP4 (11747438_a_at) / Fold change /veh GIMAP4 (11747438_a_at) / RFU KRT8 (11758183_x_at) / Fold change /veh KRT8 (11758183_x_at) / RFU CNN1 (11734310_a_at) / Fold change /veh CNN1 (11734310_a_at) / RFU VPS37D (11726825_at) / Fold change /veh VPS37D (11726825_at) / RFU C10orf10 (11716522_x_at) / Fold change /veh C10orf10 (11716522_x_at) / RFU KIR2DL2 /// KIR2DL4 /// KIR2DL5A /// KIR2DL5B /// KIR2DS1 /// KIR2DS2 /// KIR2DS3 /// KIR2DS4 /// KIR3DL3 /// KIR3DL3 /// KIR3DS1 (11738374_at) / Fold change /veh KIR2DL2 /// KIR2DL4 /// KIR2DL5A /// KIR2DL5B /// KIR2DS1 /// KIR2DS2 /// KIR2DS3 /// KIR2DS4 /// KIR3DL3 /// KIR3DL3 /// KIR3DS1 (11738374_at) / RFU C1QL1 (11718748_at) / Fold change /veh C1QL1 (11718748_at) / RFU TMPRSS4 (11747572_a_at) / Fold change /veh TMPRSS4 (11747572_a_at) / RFU HAMP (11756126_x_at) / Fold change /veh HAMP (11756126_x_at) / RFU RNFT2 (11725882_a_at) / Fold change /veh RNFT2 (11725882_a_at) / RFU NR4A2 (11747474_a_at) / Fold change /veh NR4A2 (11747474_a_at) / RFU ABCC12 (11746883_a_at) / Fold change /veh ABCC12 (11746883_a_at) / RFU TMEM136 (11760407_x_at) / Fold change /veh TMEM136 (11760407_x_at) / RFU CLDN22 /// WWC2 (11732394_at) / Fold change /veh CLDN22 /// WWC2 (11732394_at) / RFU HLA-DPB1 (11760878_x_at) / Fold change /veh HLA-DPB1 (11760878_x_at) / RFU SPINT1 (11716480_a_at) / Fold change /veh SPINT1 (11716480_a_at) / RFU GAP43 (11754022_s_at) / Fold change /veh GAP43 (11754022_s_at) / RFU A4GNT (11735810_at) / Fold change /veh A4GNT (11735810_at) / RFU PRB3 (11715151_x_at) / Fold change /veh PRB3 (11715151_x_at) / RFU TUBB4B (11761932_at) / Fold change /veh TUBB4B (11761932_at) / RFU CAPN14 (11732068_a_at) / Fold change /veh CAPN14 (11732068_a_at) / RFU TMCC2 (11721928_a_at) / Fold change /veh TMCC2 (11721928_a_at) / RFU IRGQ (11745062_a_at) / Fold change /veh IRGQ (11745062_a_at) / RFU FAM174B (11720279_a_at) / Fold change /veh FAM174B (11720279_a_at) / RFU TMPRSS4 (11748680_a_at) / Fold change /veh TMPRSS4 (11748680_a_at) / RFU FAM212B (11763350_a_at) / Fold change /veh FAM212B (11763350_a_at) / RFU PLEKHG5 (11743358_a_at) / Fold change /veh PLEKHG5 (11743358_a_at) / RFU ZSCAN30 (11745921_a_at) / Fold change /veh ZSCAN30 (11745921_a_at) / RFU CMKLR1 (11741424_a_at) / Fold change /veh CMKLR1 (11741424_a_at) / RFU LOC101060620 /// MAPK8IP1 (11723275_at) / Fold change /veh LOC101060620 /// MAPK8IP1 (11723275_at) / RFU SPTSSB (11747773_x_at) / Fold change /veh SPTSSB (11747773_x_at) / RFU PRSS12 (11739890_at) / Fold change /veh PRSS12 (11739890_at) / RFU BIN1 (11741810_x_at) / Fold change /veh BIN1 (11741810_x_at) / RFU WNT11 (11732464_a_at) / Fold change /veh WNT11 (11732464_a_at) / RFU C10orf10 (11716521_a_at) / Fold change /veh C10orf10 (11716521_a_at) / RFU C5orf56 (11738089_at) / Fold change /veh C5orf56 (11738089_at) / RFU CYB561 (11721691_x_at) / Fold change /veh CYB561 (11721691_x_at) / RFU ANKRD19P (11752326_a_at) / Fold change /veh ANKRD19P (11752326_a_at) / RFU OR2T12 /// OR2T33 /// OR2T8 (11738714_s_at) / Fold change /veh OR2T12 /// OR2T33 /// OR2T8 (11738714_s_at) / RFU VCAN (11748164_a_at) / Fold change /veh VCAN (11748164_a_at) / RFU JSRP1 (11732532_at) / Fold change /veh JSRP1 (11732532_at) / RFU KRTAP10-11 (11738290_x_at) / Fold change /veh KRTAP10-11 (11738290_x_at) / RFU MYO3A (11730013_a_at) / Fold change /veh MYO3A (11730013_a_at) / RFU EBF3 (11725865_a_at) / Fold change /veh EBF3 (11725865_a_at) / RFU CAMK2N1 (11719241_x_at) / Fold change /veh CAMK2N1 (11719241_x_at) / RFU C5orf56 (11738088_a_at) / Fold change /veh C5orf56 (11738088_a_at) / RFU OLFML3 (11715873_a_at) / Fold change /veh OLFML3 (11715873_a_at) / RFU LOC100653217 /// NTM (11731650_a_at) / Fold change /veh LOC100653217 /// NTM (11731650_a_at) / RFU MAPK11 (11762145_a_at) / Fold change /veh MAPK11 (11762145_a_at) / RFU FIZ1 (11724087_x_at) / Fold change /veh FIZ1 (11724087_x_at) / RFU OASL (11726364_x_at) / Fold change /veh OASL (11726364_x_at) / RFU SOX15 (11748057_x_at) / Fold change /veh SOX15 (11748057_x_at) / RFU CD79A (11719716_a_at) / Fold change /veh CD79A (11719716_a_at) / RFU HIST1H1D (11736915_at) / Fold change /veh HIST1H1D (11736915_at) / RFU CASKIN2 (11723855_a_at) / Fold change /veh CASKIN2 (11723855_a_at) / RFU LOC730098 (11760151_x_at) / Fold change /veh LOC730098 (11760151_x_at) / RFU OR4N2 (11742367_at) / Fold change /veh OR4N2 (11742367_at) / RFU PRRT2 (11749266_a_at) / Fold change /veh PRRT2 (11749266_a_at) / RFU SNX32 (11753110_a_at) / Fold change /veh SNX32 (11753110_a_at) / RFU CDHR5 (11726645_a_at) / Fold change /veh CDHR5 (11726645_a_at) / RFU RCAN1 (11760418_a_at) / Fold change /veh RCAN1 (11760418_a_at) / RFU FAM167A (11723789_a_at) / Fold change /veh FAM167A (11723789_a_at) / RFU FAM26E (11764081_at) / Fold change /veh FAM26E (11764081_at) / RFU ISYNA1 (11749810_s_at) / Fold change /veh ISYNA1 (11749810_s_at) / RFU ACY1 (11761880_at) / Fold change /veh ACY1 (11761880_at) / RFU 11764098_at / Fold change /veh 11764098_at / RFU SAMD14 (11745864_x_at) / Fold change /veh SAMD14 (11745864_x_at) / RFU NPB (11741838_a_at) / Fold change /veh NPB (11741838_a_at) / RFU TMPRSS6 (11731388_a_at) / Fold change /veh TMPRSS6 (11731388_a_at) / RFU KRTAP10-2 (11738614_at) / Fold change /veh KRTAP10-2 (11738614_at) / RFU ARHGAP8 /// PRR5-ARHGAP8 (11727945_x_at) / Fold change /veh ARHGAP8 /// PRR5-ARHGAP8 (11727945_x_at) / RFU KRTAP5-7 /// NADSYN1 (11734609_at) / Fold change /veh KRTAP5-7 /// NADSYN1 (11734609_at) / RFU RASL12 (11751679_a_at) / Fold change /veh RASL12 (11751679_a_at) / RFU CDKN2B (11736163_a_at) / Fold change /veh CDKN2B (11736163_a_at) / RFU PRF1 (11729649_at) / Fold change /veh PRF1 (11729649_at) / RFU, ZNF638 /// ZNF638-IT1 / Fold change vs veh, ZNF638 /// ZNF638-IT1 / RFU, PANK3 / Fold change vs veh, PANK3 / RFU, SH3YL1 / Fold change vs veh, SH3YL1 / RFU, ZEB2 / Fold change vs veh, ZEB2 / RFU, NRIP1 / Fold change vs veh, NRIP1 / RFU, PTTG1IP / Fold change vs veh, PTTG1IP / RFU, CAPN2 / Fold change vs veh, CAPN2 / RFU, MED14 / Fold change vs veh, MED14 / RFU, SNORA58 / Fold change vs veh, SNORA58 / RFU, C1orf63 / Fold change vs veh, C1orf63 / RFU, LRRFIP1 / Fold change vs veh, LRRFIP1 / RFU, NDUFAF7 / Fold change vs veh, NDUFAF7 / RFU, SLC12A2 / Fold change vs veh, SLC12A2 / RFU, IBTK / Fold change vs veh, IBTK / RFU, ESF1 / Fold change vs veh, ESF1 / Fold change vs veh, TMEM50B / RFU, TAOK1 / Fold change vs veh, TAOK1 / RFU, ACBD3 / Fold change vs veh, ACBD3 / RFU, TMA16 / Fold change vs veh, TMA16 / RFU, RWDD3 / Fold change vs veh, RWDD3 / RFU, BCAT1 / Fold change vs veh, BCAT1 / RFU, EDEM3 / Fold change vs veh, EDEM3 / RFU, TMEM33 / Fold change vs veh, TMEM33 / RFU, WDR75 / Fold change vs veh, WDR75 / RFU, AHCTF1 / Fold change vs veh, AHCTF1 / RFU, TFRC / Fold change vs veh, TFRC / RFU, ZDHHC17 / Fold change vs veh, ZDHHC17 / RFU, NOM1 / Fold change vs veh, NOM1 / RFU, ARL8B / Fold change vs veh, ARL8B / RFU, ZBTB11 / Fold change vs veh, ZBTB11 / RFU, TAMM41 / Fold change vs veh, TAMM41 / RFU, KIAA1704 /// LOC100996395 / Fold change vs veh, KIAA1704 /// LOC100996395 / RFU, ING1 / Fold change vs veh, ING1 / RFU, TRMT61B / Fold change vs veh, TRMT61B / RFU, FUBP3 / Fold change vs veh, FUBP3 / RFU, TP53 / Fold change vs veh, TP53 / RFU, TNKS2 / Fold change vs veh, TNKS2 / RFU, ZFP14 / Fold change vs veh, ZFP14 / RFU, ACTR2 / Fold change vs veh, ACTR2 / RFU, PPP3R1 / Fold change vs veh, PPP3R1 / RFU, PIK3R1 / Fold change vs veh, PIK3R1 / RFU, HNRNPA1 / Fold change vs veh, HNRNPA1 / RFU, RNF170 / Fold change vs veh, RNF170 / RFU, ZNF28 / Fold change vs veh, ZNF28 / RFU, RNGTT / Fold change vs veh, RNGTT / RFU, OGT / Fold change vs veh, OGT / RFU, BRD1 / Fold change vs veh, BRD1 / RFU, MARS / Fold change vs veh, MARS / RFU, ZNF655 / Fold change vs veh, ZNF655 / RFU, FAHD1 / Fold change vs veh, FAHD1 / RFU, BDP1 / Fold change vs veh, BDP1 / RFU, LRRCC1 / Fold change vs veh, LRRCC1 / RFU, ARID1A / Fold change vs veh, ARID1A / RFU, ZNF146 / Fold change vs veh, ZNF146 / RFU, ZNF330 / Fold change vs veh, ZNF330 / RFU, GPN3 / Fold change vs veh, GPN3 / RFU, C9orf123 / Fold change vs veh, C9orf123 / RFU, N4BP2L2 / Fold change vs veh, N4BP2L2 / RFU, ARFIP1 / Fold change vs veh, ARFIP1 / RFU, FAM179B / Fold change vs veh, FAM179B / RFU, BCL10 / Fold change vs veh, BCL10 / RFU, UHRF1BP1L / Fold change vs veh, UHRF1BP1L / RFU, BET1 / Fold change vs veh, BET1 / RFU, CNOT2 / Fold change vs veh, CNOT2 / RFU, ZNF268 / Fold change vs veh, ZNF268 / Fold change vs veh, ZNF507 / RFU, DGCR2 / Fold change vs veh, DGCR2 / RFU, WDSUB1 / Fold change vs veh, WDSUB1 / Fold change vs veh, HSP90B1 /// MIR3652 / RFU, ADSS / Fold change vs veh, ADSS / RFU, GK / Fold change vs veh, GK / RFU, ZNF148 / Fold change vs veh, ZNF148 / RFU, TAF9 / Fold change vs veh, TAF9 / RFU, SLC1A5 / Fold change vs veh, SLC1A5 / RFU, SLMO2 / Fold change vs veh, SLMO2 / RFU, ABCC4 / Fold change vs veh, ABCC4 / RFU, LOC101060439 /// RAP1B / Fold change vs veh, LOC101060439 /// RAP1B / RFU, RFX7 / Fold change vs veh, RFX7 / RFU, GTPBP10 / Fold change vs veh, GTPBP10 / RFU, CNEP1R1 / Fold change vs veh, CNEP1R1 / RFU, BIVM-ERCC5 /// ERCC5 / Fold change vs veh, BIVM-ERCC5 /// ERCC5 / RFU, ILF3 / Fold change vs veh, ILF3 / RFU 11762660_at / Fold change /veh 11762660_at / RFU VCAN (11757783_s_at) / Fold change /veh VCAN (11757783_s_at) / RFU DDX43 (11728927_at) / Fold change /veh DDX43 (11728927_at) / RFU KRT8 (11758188_x_at) / Fold change /veh KRT8 (11758188_x_at) / RFU NKD1 (11759106_at) / Fold change /veh NKD1 (11759106_at) / RFU SRD5A1 (11742802_a_at) / Fold change /veh SRD5A1 (11742802_a_at) / RFU TPSAB1 /// TPSB2 (11721975_s_at) / Fold change /veh TPSAB1 /// TPSB2 (11721975_s_at) / RFU GSTM3 (11746129_a_at) / Fold change /veh GSTM3 (11746129_a_at) / RFU IL23R (11737362_x_at) / Fold change /veh IL23R (11737362_x_at) / RFU TMEM51 (11727254_a_at) / Fold change /veh TMEM51 (11727254_a_at) / RFU PIWIL2 (11732686_x_at) / Fold change /veh PIWIL2 (11732686_x_at) / RFU ORM1 (11744905_x_at) / Fold change /veh ORM1 (11744905_x_at) / RFU CCDC152 (11743942_at) / Fold change /veh CCDC152 (11743942_at) / RFU ECM1 (11717891_a_at) / Fold change /veh ECM1 (11717891_a_at) / RFU IL23R (11748794_a_at) / Fold change /veh IL23R (11748794_a_at) / RFU TNFAIP8L3 (11732012_x_at) / Fold change /veh TNFAIP8L3 (11732012_x_at) / RFU MBOAT4 (11741988_at) / Fold change /veh MBOAT4 (11741988_at) / RFU 11764193_at / Fold change /veh 11764193_at / RFU TMEM53 (11763286_at) / Fold change /veh TMEM53 (11763286_at) / RFU MAGEB2 (11727129_at) / Fold change /veh MAGEB2 (11727129_at) / RFU TMEM200A (11744735_a_at) / Fold change /veh TMEM200A (11744735_a_at) / RFU CCDC152 (11751479_a_at) / Fold change /veh CCDC152 (11751479_a_at) / RFU FAM211A (11726209_a_at) / Fold change /veh FAM211A (11726209_a_at) / RFU RGS16 (11746705_a_at) / Fold change /veh RGS16 (11746705_a_at) / RFU VCAN (11755009_s_at) / Fold change /veh VCAN (11755009_s_at) / RFU RHOB (11743442_s_at) / Fold change /veh RHOB (11743442_s_at) / RFU RGS16 (11720943_a_at) / Fold change /veh RGS16 (11720943_a_at) / RFU RGS16 (11720944_at) / Fold change /veh RGS16 (11720944_at) / RFU, VPS4B / Fold change vs veh, VPS4B / RFU, CREB1 / Fold change vs veh, CREB1 / RFU, DNAJC13 / Fold change vs veh, DNAJC13 / RFU, GNAQ / Fold change vs veh, GNAQ / RFU, CDK5R1 / Fold change vs veh, CDK5R1 / RFU, ZRANB3 / Fold change vs veh, ZRANB3 / RFU, CUL4A / Fold change vs veh, CUL4A / RFU, CCNY / Fold change vs veh, CCNY / RFU, UFL1 / Fold change vs veh, UFL1 / RFU, COG3 / Fold change vs veh, COG3 / RFU, DIAPH2 / Fold change vs veh, DIAPH2 / RFU, SKA2 / Fold change vs veh, SKA2 / RFU, AFF3 / Fold change vs veh, AFF3 / RFU, LMF1 / Fold change vs veh, LMF1 / RFU, IPO11 / Fold change vs veh, IPO11 / RFU, DFFB / Fold change vs veh, DFFB / RFU, FOXP1 / Fold change vs veh, FOXP1 / RFU, CARD8 / Fold change vs veh, CARD8 / RFU, STRN3 / Fold change vs veh, STRN3 / RFU, ADK / Fold change vs veh, ADK / RFU, RASSF2 / Fold change vs veh, RASSF2 / RFU, WIPF1 / Fold change vs veh, WIPF1 / RFU, LARP1B / Fold change vs veh, LARP1B / RFU, RASA1 / Fold change vs veh, RASA1 / RFU, RB1 / Fold change vs veh, RB1 / RFU, PPFIA1 / Fold change vs veh, PPFIA1 / RFU, MAT2A / Fold change vs veh, MAT2A / RFU, CCT5 / Fold change vs veh, CCT5 / RFU, WDR92 / Fold change vs veh, WDR92 / RFU, CUX1 / Fold change vs veh, CUX1 / RFU, TTC7A / Fold change vs veh, TTC7A / RFU, TMEM135 / Fold change vs veh, TMEM135 / RFU, DEPTOR / Fold change vs veh, DEPTOR / RFU, CPM / Fold change vs veh, CPM / RFU, DNAJB6 / Fold change vs veh, DNAJB6 / RFU, CACNA2D3 / Fold change vs veh, CACNA2D3 / RFU, DTX4 / Fold change vs veh, DTX4 / RFU, TFCP2 / Fold change vs veh, TFCP2 / RFU, GMCL1 /// GMCL1P1 / Fold change vs veh, GMCL1 /// GMCL1P1 / RFU, AEBP2 / Fold change vs veh, AEBP2 / RFU, SNHG1 /// SNORD22 /// SNORD25 /// SNORD26 /// SNORD27 /// SNORD28 /// SNORD29 /// SNORD31 / Fold change vs veh, SNHG1 /// SNORD22 /// SNORD25 /// SNORD26 /// SNORD27 /// SNORD28 /// SNORD29 /// SNORD31 / Fold change (Aza/veh), C12orf56 (ProbeSet 11735607_a_at) / Fold change (ACY-1035/veh), C12orf56 (ProbeSet 11735607_a_at) / Fold change (Aza/veh), FGFR1OP (ProbeSet 11751329_s_at) / Fold change (ACY-1035/veh), FGFR1OP (ProbeSet 11751329_s_at) / Fold change (Aza/veh), VPS36 (ProbeSet 11739960_a_at) / Fold change (ACY-1035/veh), VPS36 (ProbeSet 11739960_a_at) / RFU SYPL1 (11715823_x_at) / Fold change /veh SYPL1 (11715823_x_at) / RFU IGFBP7 (11715501_s_at) / Fold change /veh IGFBP7 (11715501_s_at) / RFU REEP3 (11722064_at) / Fold change /veh REEP3 (11722064_at) / RFU IGLL1 (11728026_x_at) / Fold change /veh IGLL1 (11728026_x_at): dose or concentration left out as unconfirmed
Conditions: MV-4-11 cells, 48 hours

SMILES: Nc1ccc(-c2cccs2)cc1NC(=O)c1ccc2c(c1)cc(C1CC1)n2CCN1CCOCC1 [ACY-1035]
- RFU MAGEB2 (11727129_at): 5.89 RFU
